Source: patent US20240148821A1, “PHARMACEUTICAL USE OF CYCLIC PEPTIDE COMPOUND” (CHUGAI SEIYAKU KABUSHIKI KAISHA, priority 2021, published 2024)
Numbered stars: 1 amine (or outer) side, 2 acyl side, 3 side chain; on linkers, the order of the positions; unused ones are H or OH. Bridge positions count the residues as written; N and C are the ends. Square brackets hold non-standard residues; d marks the D form. Peptide text beside a SMILES is read from it. * marks the point of attachment. hPhe(3-Cl-4-CF3) = N[C@@H](CCc1ccc(C(F)(F)F)c(Cl)c1)C(=O)O; NMePhe(4-CF3) = CN[C@@H](Cc1ccc(C(F)(F)F)cc1)C(=O)O; hPhe(4-CF3) = N[C@@H](CCc1ccc(C(F)(F)F)cc1)C(=O)O; Pro(cis-4-Ph) = O=C(O)[C@@H]1C[C@H](c2ccccc2)CN1; NMePhe(4-Cl) = CN[C@@H](Cc1ccc(Cl)cc1)C(=O)O; NMePhe(2-Cl) = CN[C@@H](Cc1ccccc1Cl)C(=O)O; NMedβ3hAla = C[C@H](CC(=O)[*:2])N(C)[*:1]; NMeGly(cPent) = CN[C@H](C(=O)O)C1CCCC1; Pro(4,4-F2) = O=C(O)[C@@H]1CC(F)(F)CN1; NMeGly(cBu) = CN[C@H](C(=O)O)C1CCC1; NMeCha = CN[C@@H](CC1CCCCC1)C(=O)O; NMeCba = CN[C@@H](CC1CCC1)C(=O)O; NMeChg = CN[C@H](C(=O)O)C1CCCCC1; NMeI = CC[C@H](C)[C@H](NC)C(=O)O; N(CH2CH2)2CF2 = FC1(F)CCN(*)CC1; NMeD = CN[C@@H](CC(=O)O)C(=O)O; NMeL = CN[C@@H](CC(C)C)C(=O)O; NMeV = CN[C@H](C(=O)O)C(C)C; d(β3hA) = C[C@@H](N)CC(=O)O; Pip = O=C(O)[C@@H]1CCCCN1; NMeA = CN[C@@H](C)C(=O)O; Piperidide = C1CCN(*)CC1; Pyrrolidide = C1CCN(*)C1; dNMeA = CN[C@H](C)C(=O)O; Ac5c = NC1(C(=O)O)CCCC1; Aze = O=C(O)[C@@H]1CCN1; Ac4c = NC1(C(=O)O)CCC1; NBuGly = CCCCNCC(=O)O; Aib = CC(C)(N)C(=O)O; Sar = CNCC(=O)O

Each molecule was assayed against protein-protein interaction between Kras and SOS1 (biotin-tagged human Kras loaded with GDP, His-tagged human SOS1) (Homo sapiens (Human), UniProt P01116, G12D) (assay: Protein-protein interaction inhibition between Kras and SOS1 (KrasG12D-SOS PPI) using AlphaScreen). Conditions: AlphaScreen; biotin-tagged human Kras loaded with GDP, His-tagged human SOS1; read-out: KRAS G12D-SOS PPI IC50.
Format: biochemical

**Q.** How did the IC50 turn out when `CC[C@H](C)[C@@H]1NC(=O)[C@H](CC(C)C)N(C)C(=O)C[C@@H](C)NC(=O)[C@H](C(C)C)N(C)C(=O)C2(CCCC2)NC(=O)[C@@H]2CCCN2C(=O)[C@H](CCc2ccc(C(F)(F)F)c(Cl)c2)NC(=O)CN(C)C(=O)[C@H](CC2CCCCC2)N(C)C(=O)[C@@H]2CCN2C(=O)[C@@H]2CCCCN2C1=O` [Compound 416] (cyclo([Ac5c][NMeV][d(β3hA)][NMeL]I[Pip][Aze][NMeCha][Sar][hPhe(3-Cl-4-CF3)]P)) was run?
**A.** 0.054 µM

**Q.** With `CC[C@H](C)[C@@H]1NC(=O)[C@H](CC(C)C)N(C)C(=O)C[C@@H](C(=O)N2CCCCC2)N(C)C(=O)[C@H](C2CCCCC2)N(C)C(=O)C2(CCCC2)NC(=O)[C@@H]2C[C@H](c3ccccc3)CN2C(=O)[C@H](CCc2ccc(C(F)(F)F)c(Cl)c2)NC(=O)CN(C)C(=O)[C@H](CC2CCCCC2)N(C)C(=O)CN(C)C(=O)CN(C)C1=O` [Compound 428] ([NMeL]I[Sar][Sar][NMeCha][Sar][hPhe(3-Cl-4-CF3)][Pro(cis-4-Ph)][Ac5c][NMeChg][NMeD]-Piperidide; lactam N-11) as the molecule, how does the IC50 read?
**A.** 0.0091 µM

**Q.** `CCCCN1CC(=O)N(C)CC(=O)N(C)[C@@H](Cc2ccc(Cl)cc2)C(=O)N(C)CC(=O)N[C@@H](CCc2ccc(C(F)(F)F)cc2)C(=O)N(C)[C@@H](CC(C)C)C(=O)NC(C)(C)C(=O)N(C)[C@@H](CC(C)C)C(=O)N[C@H](C)CC(=O)N(C)[C@@H](C)C(=O)N[C@@H]([C@@H](C)CC)C1=O` [Compound 436] (cyclo([Aib][NMeL][d(β3hA)][NMeA]I[NBuGly][Sar][NMePhe(4-Cl)][Sar][hPhe(4-CF3)][NMeL])) was tested. Which IC50 did it give?
**A.** 0.16 µM

**Q.** Which IC50 does the source give for `CC[C@H](C)[C@@H]1NC(=O)[C@H](CC(C)C)N(C)C(=O)C[C@@H](C(=O)N2CCCCC2)N(C)C(=O)[C@H](C(C)C)N(C)C(=O)C2(CCCC2)NC(=O)[C@@H]2CCCN2C(=O)[C@H](CCc2ccc(C(F)(F)F)c(Cl)c2)NC(=O)CN(C)C(=O)[C@H](C2CCC2)N(C)C(=O)[C@@H]2CCN2C(=O)[C@H](C)N(C)C1=O` [Compound 446] ([NMeL]I[NMeA][Aze][NMeGly(cBu)][Sar][hPhe(3-Cl-4-CF3)]P[Ac5c][NMeV][NMeD]-Piperidide; lactam N-11) here?
**A.** 0.0018 µM

**Q.** How did the IC50 turn out when `CC[C@H](C)[C@@H]1NC(=O)[C@H](CC(C)C)N(C)C(=O)C[C@@H](C)NC(=O)[C@H](C(C)C)N(C)C(=O)C2(CCCC2)NC(=O)[C@H](CC(=O)N2CCC(F)(F)CC2)N(C)C(=O)[C@H](CCc2ccc(C(F)(F)F)c(Cl)c2)NC(=O)CN(C)C(=O)[C@H](CC2CCCCC2)N(C)C(=O)CN(C)C(=O)CN(C)C1=O` [Compound 452] (cyclo([Ac5c][NMeV][d(β3hA)][NMeL]I[Sar][Sar][NMeCha][Sar][hPhe(3-Cl-4-CF3)][NMeD](N(CH2CH2)2CF2))) was run?
**A.** 0.08 µM

**Q.** With `CC[C@H](C)[C@@H]1NC(=O)[C@H](CC(C)C)N(C)C(=O)C[C@@H](C(=O)N2CCCC2)NC(=O)[C@H]([C@@H](C)CC)N(C)C(=O)C2(CCCC2)NC(=O)[C@@H]2CCCN2C(=O)[C@H](CCc2ccc(C(F)(F)F)c(Cl)c2)NC(=O)CN(C)C(=O)[C@H](CC2CCCCC2)N(C)C(=O)[C@@H]2CCN2C(=O)[C@H](C)N(C)C1=O` [Compound 453] ([NMeL]I[NMeA][Aze][NMeCha][Sar][hPhe(3-Cl-4-CF3)]P[Ac5c][NMeI]D-Pyrrolidide; lactam N-11) as the molecule, how does the IC50 read?
**A.** 0.017 µM

**Q.** Which IC50 does the source give for `CC[C@H](C)[C@@H]1NC(=O)[C@H](CC2CCC2)N(C)C(=O)C[C@@H](C)NC(=O)[C@H](C(C)C)N(C)C(=O)C2(CCCC2)NC(=O)[C@@H]2CCCN2C(=O)[C@H](CCc2ccc(C(F)(F)F)c(Cl)c2)NC(=O)CN(C)C(=O)[C@H](CC2CCCCC2)N(C)C(=O)[C@@H]2CCN2C(=O)[C@H](C)N(C)C1=O` [Compound 455] (cyclo([Ac5c][NMeV][d(β3hA)][NMeCba]I[NMeA][Aze][NMeCha][Sar][hPhe(3-Cl-4-CF3)]P)) here?
**A.** 0.059 µM

**Q.** How did the IC50 turn out when `CC[C@H](C)[C@@H]1NC(=O)[C@H](CC(C)C)N(C)C(=O)C[C@@H](C)N(C)C(=O)[C@H]([C@@H](C)CC)N(C)C(=O)C2(CCC2)NC(=O)[C@@H]2CC(F)(F)CN2C(=O)[C@H](CCc2ccc(C(F)(F)F)c(Cl)c2)NC(=O)CN(C)C(=O)[C@H](Cc2ccc(C(F)(F)F)cc2)N(C)C(=O)[C@@H]2CCN2C(=O)[C@H](C)N(C)C1=O` [Compound 462] (cyclo([Ac4c][NMeI][NMedβ3hAla][NMeL]I[NMeA][Aze][NMePhe(4-CF3)][Sar][hPhe(3-Cl-4-CF3)][Pro(4,4-F2)])) was run?
**A.** 0.012 µM

**Q.** For `CC[C@H](C)[C@@H]1NC(=O)[C@H](C)N(C)C(=O)C[C@@H](C)NC(=O)[C@H](C2CCCC2)N(C)C(=O)C2(CCCC2)NC(=O)[C@@H]2CCCN2C(=O)[C@H](CCc2ccc(C(F)(F)F)c(Cl)c2)NC(=O)[C@@H](C)N(C)C(=O)[C@H](Cc2ccccc2Cl)N(C)C(=O)[C@@H]2CCN2C(=O)[C@H](C)N(C)C1=O` [Compound 464] (cyclo([Ac5c][NMeGly(cPent)][d(β3hA)][NMeA]I[NMeA][Aze][NMePhe(2-Cl)][dNMeA][hPhe(3-Cl-4-CF3)]P)), which IC50 is on record?
**A.** 0.13 µM
